Source: ChEMBL document CHEMBL5678818, “Discovery of potent SOS1 inhibitors that block RAS activation via disruption of the RAS-SOS1 interaction” (Proc Natl Acad Sci U S A, 2019)

How the values were obtained:
[1] = biological target: T1, Ephrin type-B receptor 3 (Homo sapiens) (UniProt P54753); assay: Inhibition of EPHB3 (unknown origin) assessed as residual activity at 1000 nM by KINOMEscan analysis relative to control
T1 sequence (whole entry): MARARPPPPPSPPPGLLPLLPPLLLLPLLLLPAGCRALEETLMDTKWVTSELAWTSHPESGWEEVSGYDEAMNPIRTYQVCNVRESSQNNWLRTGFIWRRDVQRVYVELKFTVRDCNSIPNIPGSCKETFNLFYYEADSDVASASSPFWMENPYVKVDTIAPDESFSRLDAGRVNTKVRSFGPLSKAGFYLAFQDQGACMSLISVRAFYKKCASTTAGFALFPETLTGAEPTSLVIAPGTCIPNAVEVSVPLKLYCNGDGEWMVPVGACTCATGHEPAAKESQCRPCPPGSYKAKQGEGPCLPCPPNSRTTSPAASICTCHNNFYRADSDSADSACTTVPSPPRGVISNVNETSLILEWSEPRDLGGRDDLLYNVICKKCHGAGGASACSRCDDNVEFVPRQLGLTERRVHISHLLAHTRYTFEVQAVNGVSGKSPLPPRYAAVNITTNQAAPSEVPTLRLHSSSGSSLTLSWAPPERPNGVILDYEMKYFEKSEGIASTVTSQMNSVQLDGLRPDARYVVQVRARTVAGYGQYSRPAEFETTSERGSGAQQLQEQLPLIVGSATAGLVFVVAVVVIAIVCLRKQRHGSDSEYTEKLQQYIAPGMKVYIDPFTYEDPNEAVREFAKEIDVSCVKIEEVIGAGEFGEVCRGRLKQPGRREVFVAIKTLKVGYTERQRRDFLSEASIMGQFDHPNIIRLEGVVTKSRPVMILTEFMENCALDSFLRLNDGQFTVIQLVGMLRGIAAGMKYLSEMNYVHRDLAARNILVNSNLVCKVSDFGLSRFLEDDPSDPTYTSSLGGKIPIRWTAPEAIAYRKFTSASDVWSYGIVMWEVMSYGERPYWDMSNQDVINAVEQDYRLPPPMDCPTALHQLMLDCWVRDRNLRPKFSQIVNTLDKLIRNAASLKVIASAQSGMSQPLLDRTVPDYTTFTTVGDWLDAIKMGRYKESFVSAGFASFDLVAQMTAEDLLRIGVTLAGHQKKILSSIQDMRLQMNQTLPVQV

[2] = biological target: T2, Serine/threonine-protein kinase ULK3 (Homo sapiens) (UniProt Q6PHR2); assay: Inhibition of ULK3 (unknown origin) assessed as residual activity at 1000 nM by KINOMEscan analysis relative to control
T2 sequence (whole entry): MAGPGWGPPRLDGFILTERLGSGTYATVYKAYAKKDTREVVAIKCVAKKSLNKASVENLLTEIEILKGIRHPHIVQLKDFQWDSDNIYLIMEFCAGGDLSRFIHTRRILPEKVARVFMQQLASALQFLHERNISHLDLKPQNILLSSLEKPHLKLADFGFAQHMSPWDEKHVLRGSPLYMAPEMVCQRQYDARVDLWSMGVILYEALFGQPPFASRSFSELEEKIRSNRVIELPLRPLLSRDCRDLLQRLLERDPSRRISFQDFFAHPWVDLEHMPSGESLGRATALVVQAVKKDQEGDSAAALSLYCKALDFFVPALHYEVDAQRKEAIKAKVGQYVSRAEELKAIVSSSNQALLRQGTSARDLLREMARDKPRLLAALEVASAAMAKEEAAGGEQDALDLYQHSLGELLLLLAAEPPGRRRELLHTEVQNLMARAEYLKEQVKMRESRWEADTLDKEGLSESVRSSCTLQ

[3] = biological target: Platelet-derived growth factor receptor alpha (Homo sapiens) (UniProt P16234); assay: Inhibition of PDGFRA (unknown origin) assessed as residual activity at 1000 nM by KINOMEscan analysis relative to control
[4] = test system: Mast/stem cell growth factor receptor Kit (Homo sapiens), P10721 [D816V]; assay: Inhibition of KIT D816V mutant (unknown origin) assessed as residual activity at 1000 nM by KINOMEscan analysis relative to control
[5] = biological target: T3, Serine/threonine-protein kinase PLK4 (Homo sapiens) (UniProt O00444); assay: Inhibition of PLK4 (unknown origin) assessed as residual activity at 1000 nM by KINOMEscan analysis relative to control
T3 sequence (whole entry): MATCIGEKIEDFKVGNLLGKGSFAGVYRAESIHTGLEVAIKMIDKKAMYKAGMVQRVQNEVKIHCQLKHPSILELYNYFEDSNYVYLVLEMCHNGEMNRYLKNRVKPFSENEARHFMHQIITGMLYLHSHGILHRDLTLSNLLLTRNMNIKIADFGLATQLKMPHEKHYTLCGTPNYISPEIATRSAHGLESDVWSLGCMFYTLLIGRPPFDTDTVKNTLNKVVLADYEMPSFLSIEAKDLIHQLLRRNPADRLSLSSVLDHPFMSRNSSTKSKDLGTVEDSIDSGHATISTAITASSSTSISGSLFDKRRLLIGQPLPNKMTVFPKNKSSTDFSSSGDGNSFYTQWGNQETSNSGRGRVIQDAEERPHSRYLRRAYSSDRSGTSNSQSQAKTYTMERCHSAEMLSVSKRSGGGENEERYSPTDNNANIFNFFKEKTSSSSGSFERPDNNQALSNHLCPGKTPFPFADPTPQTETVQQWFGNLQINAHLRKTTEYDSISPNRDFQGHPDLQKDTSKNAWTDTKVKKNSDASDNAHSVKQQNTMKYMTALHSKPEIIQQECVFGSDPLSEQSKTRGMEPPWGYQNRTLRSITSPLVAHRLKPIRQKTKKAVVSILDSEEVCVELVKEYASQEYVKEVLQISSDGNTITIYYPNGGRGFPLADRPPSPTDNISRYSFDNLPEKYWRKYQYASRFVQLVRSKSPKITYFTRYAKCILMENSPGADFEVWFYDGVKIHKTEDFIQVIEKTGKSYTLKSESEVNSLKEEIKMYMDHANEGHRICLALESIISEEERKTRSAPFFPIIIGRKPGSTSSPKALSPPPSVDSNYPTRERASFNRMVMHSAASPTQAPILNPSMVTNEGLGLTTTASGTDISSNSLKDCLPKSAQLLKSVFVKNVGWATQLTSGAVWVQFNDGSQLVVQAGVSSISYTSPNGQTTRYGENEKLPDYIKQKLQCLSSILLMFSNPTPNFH

Chain of Platelet-derived growth factor receptor alpha (Homo sapiens) (P16234 whole entry): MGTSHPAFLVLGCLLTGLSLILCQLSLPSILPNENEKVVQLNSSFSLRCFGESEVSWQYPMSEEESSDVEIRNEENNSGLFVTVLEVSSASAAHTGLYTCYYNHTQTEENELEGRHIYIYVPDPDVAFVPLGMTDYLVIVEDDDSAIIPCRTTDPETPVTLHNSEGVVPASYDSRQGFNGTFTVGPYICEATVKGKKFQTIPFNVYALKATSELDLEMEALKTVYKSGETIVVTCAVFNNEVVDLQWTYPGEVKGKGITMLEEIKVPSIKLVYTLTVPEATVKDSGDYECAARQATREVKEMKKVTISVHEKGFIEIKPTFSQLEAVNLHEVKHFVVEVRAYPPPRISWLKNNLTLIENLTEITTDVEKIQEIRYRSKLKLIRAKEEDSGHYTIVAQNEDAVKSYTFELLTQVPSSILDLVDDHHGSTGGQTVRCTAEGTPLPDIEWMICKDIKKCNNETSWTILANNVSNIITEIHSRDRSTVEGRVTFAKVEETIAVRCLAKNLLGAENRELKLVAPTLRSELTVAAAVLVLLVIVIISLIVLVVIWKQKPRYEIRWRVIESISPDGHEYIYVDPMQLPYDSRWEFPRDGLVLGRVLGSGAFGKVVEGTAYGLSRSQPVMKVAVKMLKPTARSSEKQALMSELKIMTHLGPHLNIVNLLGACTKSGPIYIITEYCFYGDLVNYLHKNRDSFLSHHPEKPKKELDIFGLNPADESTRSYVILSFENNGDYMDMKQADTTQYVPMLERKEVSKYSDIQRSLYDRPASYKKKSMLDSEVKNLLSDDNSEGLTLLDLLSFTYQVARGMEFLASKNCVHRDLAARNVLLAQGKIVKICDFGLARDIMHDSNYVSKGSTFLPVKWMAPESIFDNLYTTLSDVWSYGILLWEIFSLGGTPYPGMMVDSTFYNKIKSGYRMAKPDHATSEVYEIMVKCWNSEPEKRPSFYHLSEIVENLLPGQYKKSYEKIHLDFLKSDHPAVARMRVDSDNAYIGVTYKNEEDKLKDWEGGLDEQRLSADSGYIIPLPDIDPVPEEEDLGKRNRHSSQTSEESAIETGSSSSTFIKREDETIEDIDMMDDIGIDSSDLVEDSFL
Chain of Mast/stem cell growth factor receptor Kit (Homo sapiens), P10721 [D816V] (P10721 whole entry D816V): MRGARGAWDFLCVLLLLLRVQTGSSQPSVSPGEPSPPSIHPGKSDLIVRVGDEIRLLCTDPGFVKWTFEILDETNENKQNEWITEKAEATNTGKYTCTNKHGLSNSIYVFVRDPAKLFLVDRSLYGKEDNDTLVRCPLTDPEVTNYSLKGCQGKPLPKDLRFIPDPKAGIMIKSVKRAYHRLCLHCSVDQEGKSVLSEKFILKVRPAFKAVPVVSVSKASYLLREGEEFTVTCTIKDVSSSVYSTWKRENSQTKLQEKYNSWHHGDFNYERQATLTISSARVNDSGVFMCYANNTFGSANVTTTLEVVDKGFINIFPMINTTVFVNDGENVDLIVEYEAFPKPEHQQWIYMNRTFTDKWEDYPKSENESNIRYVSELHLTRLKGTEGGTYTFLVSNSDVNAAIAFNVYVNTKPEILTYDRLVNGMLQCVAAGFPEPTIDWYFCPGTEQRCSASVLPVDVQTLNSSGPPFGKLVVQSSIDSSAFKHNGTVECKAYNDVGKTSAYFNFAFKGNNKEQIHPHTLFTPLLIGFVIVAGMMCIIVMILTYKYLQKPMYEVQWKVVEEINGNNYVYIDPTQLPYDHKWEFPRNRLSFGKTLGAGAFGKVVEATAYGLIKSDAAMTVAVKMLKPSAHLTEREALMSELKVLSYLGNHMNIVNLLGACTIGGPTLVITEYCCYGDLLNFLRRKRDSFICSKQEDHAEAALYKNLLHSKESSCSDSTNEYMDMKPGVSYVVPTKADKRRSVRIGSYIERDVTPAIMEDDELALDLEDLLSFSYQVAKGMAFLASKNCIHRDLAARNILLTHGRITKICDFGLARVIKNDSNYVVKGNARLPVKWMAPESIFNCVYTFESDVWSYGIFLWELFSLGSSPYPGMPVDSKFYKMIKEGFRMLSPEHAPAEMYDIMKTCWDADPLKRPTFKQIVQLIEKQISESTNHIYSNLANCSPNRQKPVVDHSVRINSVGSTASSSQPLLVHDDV

| Structure (SMILES) | Activity [1] | Activity [2] | Activity [3] | Activity [4] | Activity [5] |
| --- | --- | --- | --- | --- | --- |
| COc1cc2ncnc(N[C@H](C)c3cccc4ccccc34)c2cc1OC | 100% | 99% | 100% | 96% | 96% |
| COc1cc2nc(C)nc(N[C@H](C)c3cccc(-c4cn[nH]c4)c3)c2cc1OC | 100% | 82% | 100% | 55% | 100% |
